Laboratory results: patent US11518981B2, “Methods of enhancing engraftment activity of hematopoietic stem cells” (CHILDREN'S HOSPITAL MEDICAL CENTER, priority 2017, dated 2022)

Columns and labels:
[1] = system: human MPB derived CD34^+ cells; assay: multi-lineage reconstitution (myeloid / B-lymphoid) in bone marrow of NSG mice; type: in vivo; details: limiting dilution transplant, 42 h LV; 6 mo post 1 T
From the text: NOD.Cg-Prkdcscid Il2rgtm1Wjl/SzJ (NSG) mice were purchased from The Jackson Laboratory (Bar Harbor, Me.). All animals were bred and maintained in a specific pathogen-free environment and all experiments were approved by the Institutional Animal Care and Use (IACUC) Committee. Male and female NSG mice aged 8 to 14 weeks old were fed doxycycline chow (TestDiet; Modified Prolab RMH-1500 with 0.0625% doxycycline) a week prior to, during and for 2 weeks post irradiation. Human engraftment was analyzed in bone marrow (BM), via BM aspirates performed at 6 and 12 weeks from left and right femurs. After sacrifice at 24 weeks, marrow from all of the primary mice (1 T) was harvested. Peripheral blood analysis was also performed in some experiments. Secondary transplants (2 T) were performed after mouse CD45^+ cells were depleted from BM harvested from each 1 T mouse separately, using Biotin Rat Anti-Mouse CD45 (BD Biosciences 553078) and Streptavidin Particles Plus-DM (BD Biosciences 557812) and injected into one irradiated (280 cGy) secondary NSG mouse. For calculating competitive repopulating units (CRU) from limiting dilution transplantation, the L-CALC^TM software (Stem Cell Technologies) was used. All of the mice used for this study were randomly assigned to a treatment group. No animals were excluded from the analysis. PE-Cyanine 7 or APC-EFLUOR® 780, APC- or PE-conjugated antibodies directed to human CD34 (BD Biosciences 560710 or 555824), CD38 (eBiosciences, San Diego, Calif. 47-0389-42), CD90 (BioLegend 328120), CD45RA (eBiosciences 17-0458-42), CD49f (BD Biosciences 555736), CD45 (BD 55485 or Biolegend 304026), CD33 (eBiosciences 25-0338-42), CD19 (BD Biosciences 557791), or CD3 (BD Biosciences 555340). Cells ( 5×10^5-1×10^6) were used to label with antibodies as per manufacturer instructions with the appropriate isotype controls. For phospho-flow, primary antibodies phospho-[…]), phospho-p44/42 MAPK (ERK 1⁄2) […]; […]), and phospho-JNK […] PE conjugate; […]) (all from Cell Signaling) were used for staining overnight followed by wash and secondary antibody stain including Goat anti-Rabbit IgG (H+L) or Goat anti-Rabbit IgG (H+L) or Pacific Blue (P-10994) antibody. Apoptosis assay was performed using PE Annexin V Apoptosis Detection Kit (BD Biosciences 559763) according to the manufacturer's instructions. Total ROS and mitochondrial specific ROS were detected using 10 μM CM-H2DCFDA (ThermoFisher Scientific C6827) and 5 μM MITOSOXTM Red (Red Mitochondrial Superoxide Indicator) (ThermoFisher Scientific M36008) respectively, following manufacturer's instructions.

γH2AX = assay: DNA damage response (γH2AX, 53BP1) by immunofluorescence and flow cytometry; type: cell-based, human; details: 72 h, RV transduced cycling HSCs
Protocol: For EdU incorporation assay, cells were incubated with 10 μM EdU throughout the culture period and the CLICK-IT® Plus EdU Pacific Blue Flow Cytometry Assay Kit (ThermoFisher Scientific C10636) was used for staining. […] Samples were run through a FACSCANTOTM, FORTESSATM, or LSR 2 flow cytometers (BD Biosciences), and the data was analyzed by […] software (BD). […] II cell sorter. FACS sorted CD34+38-90+ cells were fixed in 2% paraformaldehyde and permeabilized using 0.1% […] polyether alcohol, Sigma-Aldrich). […] Cells were counterstained and mounted with […]® antifade mounting medium with DAPI (H-1200 Vector Laboratories). Images were obtained using a Nikon 90i upright microscope.

CD34^+38^−90^+ HSCs = assay: cell cycle analysis (Ki-67 / Hoechst) of HSCs; type: cell-based, human; details: 72 h, RV transduced cycling HSCs; MK-8776 1 μM, PV1019 1 μM, PGE2 10 μM, Birb 796 600 nM
HIF-1α = HIF-1α staining in HSCs (immunofluorescence, flow cytometry); type: cell-based, human; details: 72 h, RV transduced CD34^+38^−90^+ cells
From the text: FACS sorted CD34+38−90+ cells were fixed in 2% paraformaldehyde and permeabilized using 0.1% TRITON™ X-100 (Alkaryl polyether alcohol, Sigma-Aldrich). Cells were then stained with primary antibodies Anti-phospho-H2AX (Ser 139) (Millipore, 05-636), anti-53BP1 antibody (Novus Biologicals, NB100-904), or anti-HIF-1α (ab103063). For secondary antibodies, Alexa Fluor 594 conjugated Goat anti-Rabbit IgG (H+L) (A-11037) or, ALEXA FLUOR® 647 conjugated Goat anti-Rabbit IgG (H+L) (A-21245) (both from ThermoFisher Scientific) were used for 1 hour at 37° C. Cells were counterstained and mounted with […]® antifade mounting medium with DAPI (H-1200 Vector Laboratories). Images were obtained using a Nikon 90i upright microscope.

human CD34^+ cells = assay: GFP marking in human grafts of NSG mice; type: in vivo; details: limiting dilution transplant; also long-termed secondary human grafts
From the text: NOD.Cg-Prkdcscid Il2rgtm1Wjl/SzJ (NSG) mice were purchased from The Jackson Laboratory (Bar Harbor, Me.). All animals were bred and maintained in a specific pathogen-free environment and all experiments were approved by the Institutional Animal Care and Use (IACUC) Committee. Male and female NSG mice aged 8 to 14 weeks old were fed doxycycline chow (TestDiet; Modified Prolab RMH-1500 with 0.0625% doxycycline) a week prior to, during and for 2 weeks post irradiation. Human engraftment was analyzed in bone marrow (BM), via BM aspirates performed at 6 and 12 weeks from left and right femurs. After sacrifice at 24 weeks, marrow from all of the primary mice (1 T) was harvested. Peripheral blood analysis was also performed in some experiments. Secondary transplants (2 T) were performed after mouse CD45^+ cells were depleted from BM harvested from each 1 T mouse separately, using Biotin Rat Anti-Mouse CD45 (BD Biosciences 553078) and Streptavidin Particles Plus-DM (BD Biosciences 557812) and injected into one irradiated (280 cGy) secondary NSG mouse. […] Total ROS and mitochondrial specific ROS were detected using 10 μM CM-H2DCFDA (ThermoFisher Scientific C6827) and 5 μM MITOSOXTM Red (Red Mitochondrial Superoxide Indicator) (ThermoFisher Scientific M36008) respectively, following manufacturer's instructions.

Structure (SMILES) | lineage skewing [1] | γH2AX levels in the transduced HSCs (γH2AX) | transduced HSCs accumulated in the G2M phase (CD34^+38^−90^+ HSCs) | HIF-1α levels in cycling transduced HSCs (HIF-1α) | GFP marking (human CD34^+ cells)
CCCCC(C)(C)[C@H](O)/C=C/[C@H]1[C@H](O)CC(=O)[C@@H]1C/C=C\CCCC(=O)O [PGE2, 16,16 dimethyl Prostaglandin E2] | sufficient to restore the lineage skewing | no effect | tended to reduce | could be stabilized | did not have any effect
Cn1cc(-c2cnn3c(N)c(Br)c([C@@H]4CCCNC4)nc23)cn1 [Chk1i] |  |  | Fewer transduced-HSCs were found to accumulate in the G2M phase with Chk1i (albeit not statistically significant) |  | 
